Results as given in PubChem BioAssay AID449735 (Southern Research Specialized Biocontainment Screening …, 2010).
The source made the active and inactive calls.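 Rule for the calls: active = drop in polymyxin IC50 at top compound dose in wild type more than twice that in PhoP-lacking strain; inactive = the rest.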

What was measured:
[1] = polymyxin IC50 shift, WT versus phoP- Salmonella – S. Typhimurium, WT and phoP- strains, round 3, mechanism study for PhoP regulon inhibitor project, late-stage follow-up (AID 449735); conditions: S. Typhimurium WT vs phoP-, polymyxin IC50 shift, OD600, at 150 µM, stronger effect = higher value
[2] = tested on: S. Typhimurium WT vs phoP-, polymyxin IC50 shift, OD600; experiment: as above
[3] = measured here: WT strain IC50 shift
[4] = measured here: phoP- strain IC50 shift

Row | Structure (SMILES) | polymyxin IC50 shift difference WT - phoP- [1] | polymyxin IC50 shift [1, 3] | polymyxin IC50 shift [1, 4] | IC50 [2] [µM]
1 | S=C(NCCc1ccc(Cl)cc1)Nc1ccncc1 | -0.21 (inactive) | 0.05 | 0.26 | 
2 | O=C(Nc1ccc(I)cc1)N1CCCN(Cc2ccccc2F)C1 | -8.3 (inactive) | 9.92 | 18.2 | 
3 | O=C(Nc1ccc(Cl)cc1)N1CCCN(Cc2ccccc2Br)C1 | -4.93 (inactive) | -2.84 | 2.09 | 
4 | CCn1cc(C(=O)O)c(=O)c2cc(F)c(N3CCN(C(=S)Nc4ccccc4C)CC3)cc21 |  | 15.9 | 3.07 | 30
5 | O=C(Nc1ccc(Cl)cc1)N1CCCN(Cc2ccc(Br)cc2)C1 | -1.52 (inactive) | 1.77 | 3.29 | 
6 | CCn1cc(C(=O)O)c(=O)c2cc(F)c(N3CCN(C(=S)Nc4ccccc4OC)CC3)cc21 | -0.94 (inactive) | -2.11 | -1.17 | 
